Assay results published in ChEMBL document CHEMBL1201862, “PubChem BioAssay data set” (2004).
Where a name gives a salt, the structure may show the parent alone. The source made the active and inactive calls.

Key:
[1] = target: T1, Short transient receptor potential channel 4 (Mus musculus, UniProt Q9QUQ5); assay: calcium entry via TRPC4 opening agents – cell-based, HEK293 TRPC4/mu-opioid, Fluo-4 calcium, dose response (AID 434937); assay type: functional
T1 sequence (Q9QUQ5 whole entry): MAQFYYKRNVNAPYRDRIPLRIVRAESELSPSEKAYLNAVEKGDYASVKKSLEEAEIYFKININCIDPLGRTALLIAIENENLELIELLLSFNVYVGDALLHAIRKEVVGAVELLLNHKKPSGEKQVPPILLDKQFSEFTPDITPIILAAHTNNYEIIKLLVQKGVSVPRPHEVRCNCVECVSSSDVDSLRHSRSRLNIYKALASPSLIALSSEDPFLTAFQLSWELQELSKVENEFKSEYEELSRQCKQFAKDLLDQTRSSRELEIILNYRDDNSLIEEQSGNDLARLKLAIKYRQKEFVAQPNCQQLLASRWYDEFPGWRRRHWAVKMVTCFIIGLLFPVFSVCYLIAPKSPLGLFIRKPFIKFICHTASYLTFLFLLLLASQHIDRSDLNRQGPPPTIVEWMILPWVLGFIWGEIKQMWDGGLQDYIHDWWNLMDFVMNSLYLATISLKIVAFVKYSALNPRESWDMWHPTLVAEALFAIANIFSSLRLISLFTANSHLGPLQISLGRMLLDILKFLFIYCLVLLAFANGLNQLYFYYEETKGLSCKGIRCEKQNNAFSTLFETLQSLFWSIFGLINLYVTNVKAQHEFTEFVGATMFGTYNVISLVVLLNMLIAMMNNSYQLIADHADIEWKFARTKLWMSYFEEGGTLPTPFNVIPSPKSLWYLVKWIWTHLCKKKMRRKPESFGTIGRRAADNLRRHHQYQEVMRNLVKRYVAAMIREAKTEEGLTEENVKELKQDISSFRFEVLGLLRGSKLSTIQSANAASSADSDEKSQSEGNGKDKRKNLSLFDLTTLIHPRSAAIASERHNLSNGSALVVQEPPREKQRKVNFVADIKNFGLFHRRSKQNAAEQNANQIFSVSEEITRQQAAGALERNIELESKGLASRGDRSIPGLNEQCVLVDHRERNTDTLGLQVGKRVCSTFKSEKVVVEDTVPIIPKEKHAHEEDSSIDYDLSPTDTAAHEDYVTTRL

[2] = target: T2, Trace amine-associated receptor 1 (Homo sapiens, UniProt Q96RJ0); assay: Fluorescence-based cell-based high throughput dose response assay to identify agonists of the human trace amine associated receptor 1 (TAAR1).; assay type: functional
T2 sequence (Q96RJ0 whole entry): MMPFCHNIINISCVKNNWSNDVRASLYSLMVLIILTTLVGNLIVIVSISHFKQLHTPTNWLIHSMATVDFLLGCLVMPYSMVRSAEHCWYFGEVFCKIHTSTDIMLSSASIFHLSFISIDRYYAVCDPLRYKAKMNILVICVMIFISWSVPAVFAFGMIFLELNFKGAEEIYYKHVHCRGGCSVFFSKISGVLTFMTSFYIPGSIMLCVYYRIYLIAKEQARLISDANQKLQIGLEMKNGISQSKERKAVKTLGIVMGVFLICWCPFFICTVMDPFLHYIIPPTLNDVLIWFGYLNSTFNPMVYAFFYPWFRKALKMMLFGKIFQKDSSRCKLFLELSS

[3] = cells; assay type: functional, cell-based
[4] = target: T2, Trace amine-associated receptor 1; assay: Counterscreen for agonists of the human trace amine associated receptor 1 (hTAAR1): Fluorescence-based cell-based high throughput dose response assay to identify hTAAR1 agonist that also desensitize TAAR1 receptor response.; assay type: functional
[5] = cells; assay type: functional, cell-based; remark: listed apart in the source
[6] = target: T3, DNA repair protein RAD52 homolog (Homo sapiens, UniProt P43351); assay type: functional, biochemical
T3 sequence (P43351 whole entry): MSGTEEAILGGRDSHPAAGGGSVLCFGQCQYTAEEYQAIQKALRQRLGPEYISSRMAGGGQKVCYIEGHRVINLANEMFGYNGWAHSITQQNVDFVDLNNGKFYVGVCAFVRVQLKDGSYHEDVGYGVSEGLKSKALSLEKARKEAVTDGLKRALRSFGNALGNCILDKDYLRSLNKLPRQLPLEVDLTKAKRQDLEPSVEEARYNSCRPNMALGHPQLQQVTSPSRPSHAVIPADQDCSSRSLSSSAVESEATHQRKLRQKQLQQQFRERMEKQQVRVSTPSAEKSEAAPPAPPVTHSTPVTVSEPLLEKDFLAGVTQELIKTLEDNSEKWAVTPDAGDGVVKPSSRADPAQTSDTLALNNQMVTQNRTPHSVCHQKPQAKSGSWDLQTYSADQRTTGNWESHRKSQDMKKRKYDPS

[7] = target: Mitogen-activated protein kinase 10 (Homo sapiens, UniProt P53779); assay: Dose response biochemical screening assay for inhibitors of c-Jun N-Terminal Kinase 3 (JNK3). [Related pubchem assays: 746 ]
[8] = tested on: INS1; assay: INS-1E survival protection against cytokine death – cell-based, luminescence, retest, dose response (AID 449756); assay type: functional; conditions: Rattus norvegicus;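 also: cell death triggered by IL-1 beta plus TNF-alpha plus IFN-gamma mixture; protective hits raise ATP signal compared with cytokine alone wells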
[9] = NIH3T3 cell viability loss – ATP luminescence, mouse fibroblasts, counter-screen, dose response (AID 2010); assay type: functional, cell-based;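 also: cells exposed to compound for about 90 hours before reading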
[10] = Trypanosoma cruzi growth suppression in host cells – NIH3T3 host cells, beta-gal luminescence, confirmation (AID 2044); assay type: functional, cell-based;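 also: intracellular parasites grown in NIH/3T3 mouse fibroblasts as host cells; luminescent beta-galactosidase reporter signal from transgenic T. cruzi replicating inside host cells; inhibitors lower the luminescence signal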
[11] = A549 cell cytotoxicity, dose response, cytotoxicity control, plate reader, cherry-pick, antagonist series (AID 743412); assay type: functional, cell-based
[12] = target: T1, Short transient receptor potential channel 4; assay: block of DAMGO-driven TRPC4 calcium entry – cell-based, HEK293 TRPC4/mu-opioid, Fluo-4 calcium, dose response (AID 434942); assay type: functional;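 also: potency of inhibitors blocking the TRPC4 calcium response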
[13] = HIV-1 AD8 envelope cell-cell fusion blockers – cherry-pick, dose response (AID 652062); assay type: functional, cell-based;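 also: luciferase signal from cell-cell fusion driven by HIV-1 clade B AD8 Env; potency is for inhibitors of fusion seen as a drop in luminescence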
[14] = blockers of HIV-1 ZM109 envelope-driven cell-cell fusion – HeLa effector, CEM target cells, luciferase, cherry-pick, dose response (AID 652058); assay type: functional, cell-based;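 also: luciferase signal from HIV-1 Env mediated cell-cell fusion of effector and target cells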
[15] = blockers of HIV-1 envelope-mediated cell-cell fusion – cherry-pick, dose response (AID 652057); assay type: functional, cell-based
[16] = target: T4, DNA repair and recombination protein RAD54-like (Homo sapiens, UniProt Q92698); assay: RAD54 Holliday junction migration blockers – biochemical, fluorescence, cherry-picked samples, dose series, confirmation (AID 651657); assay type: functional
T4 sequence (Q92698 whole entry): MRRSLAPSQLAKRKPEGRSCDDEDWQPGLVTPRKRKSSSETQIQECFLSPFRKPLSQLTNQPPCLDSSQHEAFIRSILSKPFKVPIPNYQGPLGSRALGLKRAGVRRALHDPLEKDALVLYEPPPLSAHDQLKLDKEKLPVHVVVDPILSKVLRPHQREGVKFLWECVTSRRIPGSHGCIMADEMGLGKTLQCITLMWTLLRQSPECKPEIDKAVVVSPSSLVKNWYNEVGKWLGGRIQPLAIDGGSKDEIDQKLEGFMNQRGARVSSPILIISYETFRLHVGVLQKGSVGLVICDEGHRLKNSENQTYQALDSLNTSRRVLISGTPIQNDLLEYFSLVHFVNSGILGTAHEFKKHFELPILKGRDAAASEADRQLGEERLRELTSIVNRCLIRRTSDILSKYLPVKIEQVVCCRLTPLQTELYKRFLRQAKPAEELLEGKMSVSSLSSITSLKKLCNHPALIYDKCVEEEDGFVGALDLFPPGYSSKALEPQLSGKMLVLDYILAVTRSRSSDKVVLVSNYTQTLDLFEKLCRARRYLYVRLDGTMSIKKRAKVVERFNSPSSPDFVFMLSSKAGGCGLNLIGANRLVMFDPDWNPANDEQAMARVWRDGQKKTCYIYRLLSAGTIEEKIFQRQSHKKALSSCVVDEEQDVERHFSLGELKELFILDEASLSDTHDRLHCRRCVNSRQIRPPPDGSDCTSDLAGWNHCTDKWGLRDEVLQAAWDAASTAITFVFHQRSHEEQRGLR

[17] = target: Large T antigen (Simian virus 40, UniProt P03070); assay type: functional, Betapolyomavirus macacae;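 also: Confirmatory-stage PubChem screen for compounds that inhibit SV40 T antigen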
[18] = target: FAD-linked sulfhydryl oxidase ALR (Homo sapiens, UniProt P55789); assay: ALR-catalysed DTT oxidation blockers – biochemical, H2O2 detection, luminescence, cherry-pick, dose response (AID 493248)
[19] = target: Eukaryotic translation initiation factor 4E (Mus musculus, UniProt P63073); assay: blockers of eIF4G binding by eIF4E – biochemical, TR-FRET, dose response (AID 855); assay type: functional;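 also: potency for disrupting eIF4E binding to eIF4GI seen as loss of FRET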
Eukaryotic translation initiation factor 4E, sequence (P63073 whole entry): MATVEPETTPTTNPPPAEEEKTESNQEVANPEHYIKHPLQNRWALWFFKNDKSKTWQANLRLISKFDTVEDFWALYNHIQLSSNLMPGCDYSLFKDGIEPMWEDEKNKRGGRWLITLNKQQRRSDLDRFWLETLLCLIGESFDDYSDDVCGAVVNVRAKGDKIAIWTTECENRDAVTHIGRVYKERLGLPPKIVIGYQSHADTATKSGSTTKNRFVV

Mitogen-activated protein kinase 10, sequence (P53779 whole entry): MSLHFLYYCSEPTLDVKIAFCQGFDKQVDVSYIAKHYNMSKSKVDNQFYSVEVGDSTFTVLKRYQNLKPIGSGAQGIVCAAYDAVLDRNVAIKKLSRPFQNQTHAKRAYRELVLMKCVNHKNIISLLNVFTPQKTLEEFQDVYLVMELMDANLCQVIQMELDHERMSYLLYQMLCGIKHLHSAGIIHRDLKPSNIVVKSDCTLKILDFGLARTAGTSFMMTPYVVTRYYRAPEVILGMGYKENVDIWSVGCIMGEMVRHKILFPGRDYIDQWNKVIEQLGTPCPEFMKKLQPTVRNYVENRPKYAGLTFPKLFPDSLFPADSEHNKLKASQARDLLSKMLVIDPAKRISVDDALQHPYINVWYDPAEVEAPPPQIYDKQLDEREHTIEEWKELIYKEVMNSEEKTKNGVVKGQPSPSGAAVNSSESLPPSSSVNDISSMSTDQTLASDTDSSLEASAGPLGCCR
Large T antigen, sequence (P03070 whole entry): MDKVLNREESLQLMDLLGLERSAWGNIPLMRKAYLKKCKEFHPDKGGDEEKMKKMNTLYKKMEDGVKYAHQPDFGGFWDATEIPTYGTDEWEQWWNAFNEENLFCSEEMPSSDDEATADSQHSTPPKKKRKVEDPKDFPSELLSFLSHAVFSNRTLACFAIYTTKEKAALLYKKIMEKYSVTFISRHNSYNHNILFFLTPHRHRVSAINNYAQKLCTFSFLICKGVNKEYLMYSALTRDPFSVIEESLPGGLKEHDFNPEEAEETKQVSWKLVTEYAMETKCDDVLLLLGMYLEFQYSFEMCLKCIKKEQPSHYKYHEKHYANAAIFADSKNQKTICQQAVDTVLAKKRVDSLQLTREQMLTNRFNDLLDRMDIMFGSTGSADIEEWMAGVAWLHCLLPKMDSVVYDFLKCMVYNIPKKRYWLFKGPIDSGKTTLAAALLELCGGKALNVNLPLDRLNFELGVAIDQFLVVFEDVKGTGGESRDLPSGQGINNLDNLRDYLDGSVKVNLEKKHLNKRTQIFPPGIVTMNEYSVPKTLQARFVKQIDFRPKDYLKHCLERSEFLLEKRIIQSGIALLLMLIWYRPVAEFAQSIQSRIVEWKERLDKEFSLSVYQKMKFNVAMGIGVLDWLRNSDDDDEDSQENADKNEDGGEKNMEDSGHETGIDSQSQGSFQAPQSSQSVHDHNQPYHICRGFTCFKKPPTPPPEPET
FAD-linked sulfhydryl oxidase ALR, sequence (P55789 whole entry): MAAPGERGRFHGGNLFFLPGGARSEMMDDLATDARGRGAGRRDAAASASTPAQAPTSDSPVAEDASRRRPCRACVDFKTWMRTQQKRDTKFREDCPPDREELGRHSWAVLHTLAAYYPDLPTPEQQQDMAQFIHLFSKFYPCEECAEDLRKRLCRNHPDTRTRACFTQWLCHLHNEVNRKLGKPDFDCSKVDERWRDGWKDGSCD

For `CN(CCc1ccccn1)C1CC(=O)N(c2ccc(Cl)cc2)C1=O` (configuration not stated), the EC50 [1] was 2.11 µM (active).
With `O=C(O)C1C2C=CC(C2)C1C(=O)NCCC1=CCCCC1` (configuration not stated) the EC50 [2] was 0.916 µM (active), the EC50 [3] was > 29.9 µM (inactive) and the IC50 [4] was > 29.9 µM (inactive). For the same compound, the IC50 [5] was > 29.9 µM (inactive).
In the case of `NCCCCCC(=O)N/N=C/c1ccc2nccnc2c1`, the AC50 [6] is reported as 16.3 µM (active).
In the case of `Cn1nnnc1SCc1ccc(C(=O)Nc2nccs2)cc1`, the IC50 [7] is reported as 56.9 µM (not active).
For `CCOC(=O)c1c(C)[nH]c2ccc(O)cc12`, the IC50 [7] was > 93.1 µM (not active).
In the case of `O=C(CCCn1c(=S)[nH]c2ccccc2c1=O)NCc1ccco1`, the IC50 [7] is reported as 49.2 µM (not active).
For `CCOC(=O)c1c(NC(=O)C[n+]2ccc(Cc3ccccc3)cc2)sc(C)c1C`, the AC50 [8] was 5.35 µM (active), the EC50 [9] was > 60 µM (not active) and the AC50 [6] was 20.5 µM (active). For the same compound, the EC50 [10] was 1.83 µM (active).
With `COCC(=O)N[C@@H]1CC[C@@H](CC(=O)NCc2ccccc2OC)O[C@@H]1CO` the AC50 [11] was > 52 µM (inactive).
In the case of `O=C(NCCc1ccc(O)cc1)c1[nH]c(C(F)(F)F)nc1-c1ccccc1`, the EC50 [2] is reported as 0.485 µM (active), the EC50 [3] is reported as > 29.9 µM (inactive) and the IC50 [4] is reported as 5.53 µM (active). For the same compound, the IC50 [5] was > 29.9 µM (inactive).
With `COc1ccc(C(CNC(=O)c2cc(SC)ccc2Cl)N(C)C)cc1` (configuration not stated) the EC50 [1] was 0.944 µM (active).
For `O=C(NC1CC1)C1=C[C@H](C2CCCCC2)C[C@H](OCc2ccc(CO)cc2)O1`, the EC50 [1] was 4.22 µM (active) and the EC50 [12] was 5.31 µM (active).
For `C[C@@H]1CN([C@@H](C)CO)C(=O)c2ccccc2-c2ccccc2CO[C@@H]1CN(C)C(=O)Nc1ccc2c(c1)OCO2`, the AC50 [13] was 1.6 µM (active), the AC50 [14] was 0.54 µM (active) and the AC50 [15] was 0.318 µM (active).
In the case of `CCOC(=O)[C@]12CCCC=C1N(CCC1=CCCCC1)C(=O)[C@H](CC(=O)NCCc1ccccc1OC)C2`, the EC50 [2] is reported as 3.59 µM (active), the EC50 [3] is reported as > 29.9 µM (inactive) and the IC50 [4] is reported as 5.92 µM (active). For the same compound, the IC50 [5] was 26.9 µM (inactive).
With `COc1ccccc1Nc1nc(NCC2CCCO2)c2ccccc2n1` (configuration not stated) the EC50 [9] was > 60 µM (not active), the EC50 [10] was 0.194 µM (active) and the AC50 [16] was 81.9 µM (active). For the same compound, the EC50 [12] was 2.66 µM (active).
For `Oc1ccc(C2CNCCc3c2cc(O)c(O)c3Cl)cc1` (configuration not stated) [FENOLDOPAM MESYLATE], the IC50 [17] was > 100 µM (active), the EC50 [2] was 2.7 µM (active) and the AC50 [6] was 21.7 µM (active). For the same compound, the EC50 [3] was > 29.9 µM (inactive), the IC50 [4] was 8.04 µM (active) and the IC50 [5] was > 29.9 µM (inactive). The AC50 [18] was 1.37 µM (active).
With `N#CCCSc1ncnc2c1oc1ccccc12` the IC50 [7] was 27.7 µM (not active).
With `CN1CCN(CCCC(=O)c2ccc(C3CCCC3)cc2)CC1` the AC50 [6] was 19.7 µM (active).
In the case of `O=C(O)CSc1nnc(COc2cccc3cccnc23)n1-c1cccc(C(F)(F)F)c1`, the IC50 [19] is reported as 50 µM (inactive).
